According to patent publication US11207312B2, “Metallo-beta-lactamase inhibitors and methods of use thereof” (priority 2017, dated 2021):
≈ marks a conversion by molar mass, not a printed value.

What was measured:
Assay in all cases: microbe, parasite or virus in culture
Type in all cases: cell-based, Pseudomonas aeruginosa
[1] = test system: efflux- MB5890 Trans pFlp-Vim2 plasmid; details: OprD+, efflux−, MB5890 Trans pFlp-Vim2 plasmid
[2] = test system: MB9799 (efflux- MB5890 Trans IMP1 plasmid); details: MB9799, OprD+, efflux−, MB5890 Trans IMP1 plasmid (CL 5673)
Excerpt: (§1) The strain background is Pseudomonas aeruginosa PAO1. A wild-type (M135919) and an isogenic strain in which multiple efflux pumps have been disrupted genetically were used. The MBL IMP-1, obtained from a clinical isolate was introduced into the strain pair by the following process:
(§2) The plasmid DNA was transformed into parental MB5919 (oprD+, efflux+, inducible AmpC) and MB5890 (oprD+, efflux−, inducible AmpC) isogenic strains by electroporation.
(§3) Minimum inhibitory concentrations of sentinel antibiotics were performed to quality control the new strains.

[3] = test system: MB9798 (efflux+ MB5919 Trans IMP1 plasmid); details: MB9798, OprD+, efflux+, MB5919 Trans IMP1 plasmid (CL 5673)
Excerpt: as §1, §2, §3

[4] = test system: MB5890 (OprD+, efflux-); details: MB5890, OprD+, efflux−
Excerpt: as §1, §2, §3

[5] = test system: MB5919 (OprD+, efflux+); details: MB5919, OprD+, efflux+
Excerpt: as §1, §2, §3

[6] = test system: efflux+ MB5919 Trans pFlp-Vim2 plasmid; details: OprD+, efflux+, MB5919 Trans pFlp-Vim2 plasmid
[7] = test system: MB9862 (efflux- MB5890 trans pFlp-Vim1); details: MB9862, OprD+, efflux−, MB5890 trans pFlp-Vim1
[8] = test system: MB9861 (Efflux+ MB5919 Trans pFlp-Vim1 plasmid); details: MB9861, OprD+, Efflux+, MB5919 Trans pFlp-Vim1 plasmid

C[C@@H](O)[C@H]1C(=O)N2C(C(=O)O)=C(SCCN=CN)C[C@H]12 [Imipenem, imipenem]
MIC [1]: 32 µg/mL (≈ 107 µM)
MIC [2]: 32 µg/mL (≈ 107 µM)
MIC [3]: 64 µg/mL (≈ 214 µM)
MIC [4]: 2 µg/mL (≈ 6.68 µM)
MIC [5]: 4 µg/mL (≈ 13.4 µM)
MIC [6]: >64 µg/mL
MIC [7]: 64 µg/mL (≈ 214 µM)
MIC [8]: >64 µg/mL
